# Legend:
# [1] = test system: human breast cancer (MCF-7) cells; assay: Cytotoxicity (MTT) in the dark or upon exposure to ultrasound radiation; assay type: cell-based; details: 4 h incubation, then 44 h, concentrations correspond to the platinum complex
# Method: (§1) 6 × 10^3 cells were seeded onto 96-well plates and allowed to adhere overnight. The cells were treated with increasing concentrations of the compound which was diluted in cell media to a total volume of 200 µL. The cells were incubated with the compound for 4 h and after this time the medium refreshed. The cells for the dark group were grown for an additional 44 h at 37 °C. The cells for the ultrasound group were exposed to ultrasound radiation (1.5 W/cm^2, 2 min) with an Intelect Mobile 2 Ultrasound Emitter (DJO Global). The cells for the ultrasound group were grown for an additional 44 h at 37 °C. After this incubation time, the culture medium was substituted with PBS buffer containing 3-(4,5-dimethylthiazol-2-yl)-2,5-diphenyltetrazolium bromide (MTT) with a final concentration of 12 µM. The cells were incubated for 2 h at 37 °C and 10 % CO2 After this time, the DPBS-MTT mixture was removed and the wells filled with 200 µL DMSO. Using a 620 nm reference wavelength, the absorption of the formazan was measured at 550 nm with an Infinite M Nano plus Microplate reader (Tecan).
# (§2) In contrast, the nanoparticles induced a cytotoxic effect upon exposure to ultrasound radiation. Table 1 reflects the respective data, which are also visualized in Fig. 3. Table 1: Cytotoxicity (IC50 in µM) of oxaliplatin, NP-Pt-1 and NP-Pt-2 in the dark or upon exposure to ultrasound radiation in mouse colon carcinoma (CT-26) and human breast cancer (MCF-7) cells. The mentioned concentrations correspond to the platinum complex.
# [2] = test system: mouse colon carcinoma (CT-26) cells; assay: as above; assay type: cell-based; details: 4 h incubation, then 44 h, concentrations correspond to the platinum complex
# Method: as §1, §2
structure (smiles),measurement,setting,value
O=C1[O][Pt]2([NH][C@@H]3CCCC[C@H]3[NH]2)[O]C1=O [Oxaliplatin],IC50,"[1]; MCF-7, dark, 2880 min",24.5 ± 4.6 µM
same,IC50,"[1]; MCF-7, ultrasound (1.5 W/cm^2, 2 min)",22.4 ± 4.8 µM
same,IC50,"[2]; CT-26, dark, 2880 min",20.4 ± 3.1 µM
same,IC50,"[2]; CT-26, ultrasound (1.5 W/cm^2, 2 min)",19.3 ± 3.4 µM
